The values below come from paper PMC9814781, “Structure-based design of a dual-warhead covalent inhibitor of FGFR4” (Communications Chemistry, 2022).

One data set has as its system FGFR4(C552A) mutant. To be noted: cited from earlier work.
A further data set deals with FGFR1 (Homo sapiens, UniProt P11362). Briefly: MALDI-TOF MS covalent binding.
A further data set concerns the target T1, FGFR4(C552A) (Homo sapiens, UniProt P22455, C552A).
T1 construct: FGFR4 (residues 445–753); 6xHis + PreScission site (N, cleaved yes); made in house; host or cells: Escherichia coli Rosseta
Briefly: MALDI-TOF MS covalent binding. As to the method: (§1) Wild-type FGFRs and mutant FGFRs were prepared as previously described[25]–[27]. […] The N-terminal of the recombinant proteins were contained a 6xHis tag followed by a PreScission cleavage site for FGFR1, FGFR2, FGFR3, and FGFR4. Site-directed mutagenesis of FGFR4 was generated according to the ClonExpress II One Step Cloning Kit (Vazyme) using the pET28a-FGFR4 plasmid as the template. […] For crystallization experiments, the wild-type FGFR4 plasmid was co-expressed with untagged YOPH to obtain non-phosphorylated proteins. The proteins were first purified by Ni-NTA affinity chromatography. The 6 × His tag was removed by PreScission protease. Then, anion exchange chromatography (Mono Q) and size exclusion chromatography (if necessary) were exploited for further purification. The target proteins were concentrated to ~5–15 mg/mL and flash frozen for storage at −80°C for subsequent studies.

Another data set has as its target T2, FGFR4 (Homo sapiens, UniProt P22455).
T2 construct: purchased ICE Bioscience
The data set is described as follows: MALDI-TOF MS covalent binding. As to the method:
as §1

A further data set concerns the target T3, FGFR4(C477A) (Homo sapiens, UniProt P22455, C477A).
T3 construct: FGFR4 (residues 445–753); 6xHis + PreScission site (N, cleaved yes); made in house; host or cells: Escherichia coli Rosseta
The data set is described as follows: MALDI-TOF MS covalent binding. As to the method:
as §1

A further data set can be described thus: GSH reaction assay. It counts as in vitro ADME. To be noted: GSH 5 mM, inhibitor 1 mM, 37°C, 10–60 min. On the procedure:
GSH (5 mM) and inhibitor (1 mM) or DMSO control were mixed in equal volumes and reacted at 37°C for 10 min, 20 min, 30 min, 40 min, 50 min, and 60 min. The remaining GSH was detected with DTNB (Beyotime, China), and the absorption light was measured at 412 nm on a plate reader (Perkin-Elmer). Data were determined using the time (min) versus % of control in Origin 2018 software.

T2 sequence (P22455 22-802): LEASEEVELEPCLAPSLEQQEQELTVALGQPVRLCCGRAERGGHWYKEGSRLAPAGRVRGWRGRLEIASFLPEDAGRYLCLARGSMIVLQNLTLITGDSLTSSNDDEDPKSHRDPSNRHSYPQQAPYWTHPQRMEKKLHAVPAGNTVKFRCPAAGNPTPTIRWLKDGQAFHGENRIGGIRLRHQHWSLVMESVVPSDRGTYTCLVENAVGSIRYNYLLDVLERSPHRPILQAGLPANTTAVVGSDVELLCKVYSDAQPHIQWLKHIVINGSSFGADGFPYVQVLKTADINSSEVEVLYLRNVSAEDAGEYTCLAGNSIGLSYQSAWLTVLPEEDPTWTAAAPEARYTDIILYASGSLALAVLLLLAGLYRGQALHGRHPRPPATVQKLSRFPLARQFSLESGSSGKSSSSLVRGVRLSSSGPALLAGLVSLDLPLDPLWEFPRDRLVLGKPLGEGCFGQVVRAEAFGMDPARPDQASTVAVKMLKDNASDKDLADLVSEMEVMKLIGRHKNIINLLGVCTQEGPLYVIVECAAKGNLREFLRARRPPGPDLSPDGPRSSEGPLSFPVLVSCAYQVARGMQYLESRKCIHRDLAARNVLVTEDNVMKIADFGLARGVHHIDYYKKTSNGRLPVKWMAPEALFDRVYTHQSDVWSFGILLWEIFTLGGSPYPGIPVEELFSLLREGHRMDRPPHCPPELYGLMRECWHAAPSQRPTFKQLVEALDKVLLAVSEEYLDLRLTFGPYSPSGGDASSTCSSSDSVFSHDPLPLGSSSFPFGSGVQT
T3 sequence (P22455 445-753 C477A): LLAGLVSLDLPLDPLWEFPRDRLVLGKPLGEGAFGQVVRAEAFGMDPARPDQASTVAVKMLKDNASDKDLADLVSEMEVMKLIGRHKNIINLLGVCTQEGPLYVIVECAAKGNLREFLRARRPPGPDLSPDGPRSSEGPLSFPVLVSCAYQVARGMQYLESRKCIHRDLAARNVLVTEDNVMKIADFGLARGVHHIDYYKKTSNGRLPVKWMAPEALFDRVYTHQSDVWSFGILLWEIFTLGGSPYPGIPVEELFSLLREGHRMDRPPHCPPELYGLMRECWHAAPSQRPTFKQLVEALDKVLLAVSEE
Chain of FGFR1 (P11362 22-822): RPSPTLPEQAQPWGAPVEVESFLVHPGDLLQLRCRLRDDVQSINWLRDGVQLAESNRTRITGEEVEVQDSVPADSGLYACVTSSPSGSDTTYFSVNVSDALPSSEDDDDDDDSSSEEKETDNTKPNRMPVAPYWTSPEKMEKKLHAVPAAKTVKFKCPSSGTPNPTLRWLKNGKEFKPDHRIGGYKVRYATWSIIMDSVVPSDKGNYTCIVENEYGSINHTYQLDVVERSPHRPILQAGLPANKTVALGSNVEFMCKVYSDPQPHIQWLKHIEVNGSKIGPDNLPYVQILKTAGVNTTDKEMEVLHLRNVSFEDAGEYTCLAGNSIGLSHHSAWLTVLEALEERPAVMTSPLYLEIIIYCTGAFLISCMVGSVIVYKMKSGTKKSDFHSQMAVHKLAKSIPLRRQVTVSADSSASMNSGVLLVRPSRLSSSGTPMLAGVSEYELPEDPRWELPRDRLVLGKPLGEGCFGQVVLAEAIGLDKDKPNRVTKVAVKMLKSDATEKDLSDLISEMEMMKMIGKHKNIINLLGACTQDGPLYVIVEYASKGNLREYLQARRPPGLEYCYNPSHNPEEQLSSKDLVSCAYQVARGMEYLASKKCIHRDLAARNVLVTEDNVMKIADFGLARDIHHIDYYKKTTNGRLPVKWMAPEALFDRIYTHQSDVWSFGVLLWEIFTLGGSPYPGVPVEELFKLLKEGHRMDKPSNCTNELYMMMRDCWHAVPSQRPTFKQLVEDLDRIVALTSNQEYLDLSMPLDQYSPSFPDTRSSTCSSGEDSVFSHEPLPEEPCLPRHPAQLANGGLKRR
T1 sequence (P22455 445-753 C552A): as the sequence (P22455 445-753 C477A) above, with A33C, C108A counted along it
Experimental for FGFR1: The N-terminal of the recombinant proteins were contained a 6xHis tag followed by a PreScission cleavage site for FGFR1, FGFR2, FGFR3, and FGFR4. […] The proteins were first purified by Ni-NTA affinity chromatography. The 6 × His tag was removed by PreScission protease. Then, anion exchange chromatography (Mono Q) and size exclusion chromatography (if necessary) were exploited for further purification. The target proteins were concentrated to ~5–15 mg/mL and flash frozen for storage at −80°C for subsequent studies.

As for `C=CC(=O)N[C@H]1CCOC[C@H]1Nc1ncc2cc(-c3c(Cl)c(OC)cc(OC)c3Cl)ccc2n1` [BLU554], the IC50 in the data set on FGFR4(C552A) mutant is over 10 µM.
For the compound `C=CC(=O)Nc1cccc(C)c1Nc1ncc2c(n1)N(CCCN1CCN(C(=O)C=C)CC1)C(=O)N(c1cc(OC)cc(OC)c1)C2` [CXF-008], the “covalent bond formation (mass shift)” value on FGFR1 was “forms a covalent bond with FGFR1”; at FGFR4(C552A), “not with FGFR4(C552A)”; at FGFR4, “only forms one covalent bond with Cys552 of FGFR4”; on FGFR4(C477A), “forms a covalent bond with FGFR4(C477A)”.
Consider `COCCNc1cc(NC(=O)N2CCCc3cc(CN4CCN(C)CC4=O)c(C=O)nc32)ncc1C#N` [FGF401], for which the IC50 with FGFR4(C552A) mutant is […].
With `C=CC(=O)N1CCN(CCCn2c(=O)c(-c3c(Cl)c(OC)cc(OC)c3Cl)cc3cnc(NC)nc32)CC1` [PRN1371, 8-(3-(4-Acryloylpiperazin-1-yl)propyl)-6-(2,6-dichloro-3,5-dimethoxyphenyl)-2-(methylamino)pyrido[2,3-d]pyrimidin-7(8H)-one, reference compound], the “GSH reactivity (remaining GSH, DTNB)” value in the data set “GSH reaction assay” is “time-dependent decrease in GSH”.

As usually defined, the IC50 is the concentration at which inhibition is half-maximal.
